In ChEMBL document CHEMBL1145592, “Pleuromutilin derivatives having a purine ring. Part 1: new compounds with promising antibacterial activity against resistant Gram-positive pathogens” (2008):
Converted amounts (≈) assume the structure as drawn.

Assays:
Type in all cases: functional
[1] = tested on: Staphylococcus aureus; test: Antibacterial activity against methicillin-susceptible Staphylococcus aureus Smith
[2] = tested on: Staphylococcus aureus; test: Antibacterial activity against methicillin-resistant Staphylococcus aureus KMP9
[3] = tested on: Enterococcus faecium; test: Antibacterial activity against vancomycin-resistant Enterococcus faecium KU1778
[4] = tested on: Staphylococcus aureus; test: Antibacterial activity against methicillin-susceptible Staphylococcus aureus Smith infected iv dosed mouse 1 hr after inoculation
[5] = tested on: Streptococcus pneumoniae; test: Antibacterial activity against penicillin-susceptible Streptococcus pneumoniae ATCC 49619
[6] = tested on: Streptococcus pneumoniae; test: Antibacterial activity against penicillin-resistant Streptococcus pneumoniae KT2524
[7] = tested on: Streptococcus pyogenes; test: Antibacterial activity against Streptococcus pyogenes ATCC 12344
[8] = tested on: Moraxella catarrhalis; test: Antibacterial activity against Moraxella catarrhalis K1209
[9] = tested on: Haemophilus influenzae; test: Antibacterial activity against Haemophilus influenzae TH13

C=C[C@]1(C)C[C@@H](OC(=O)CSC2CCN(C(=O)CCn3cnc4c(N5CCC(NC)C5)nc(N)nc43)CC2)[C@]2(C)[C@H](C)CC[C@]3(CCC(=O)[C@@H]32)[C@@H](C)[C@@H]1O (some centres not stated)
MIC [1]: 0.25 µg/mL (≈ 0.327 µM) | MIC [2]: 1 µg/mL (≈ 1.31 µM) | MIC [3]: 0.25 µg/mL (≈ 0.327 µM) | ED50 [4]: 1.72 mg/kg | MIC [5]: 0.063 µg/mL (≈ 0.0823 µM) | MIC [6]: 0.063 µg/mL (≈ 0.0823 µM) | MIC [7]: 0.032 µg/mL (≈ 0.0418 µM) | MIC [8]: 0.125 µg/mL (≈ 0.163 µM) | MIC [9]: 1 µg/mL (≈ 1.31 µM)

C=C[C@]1(C)C[C@@H](OC(=O)CSC2CCN(C(=O)CCn3cnc4c(N5CCCC(N)C5)ncnc43)CC2)[C@]2(C)[C@H](C)CC[C@]3(CCC(=O)[C@@H]32)[C@@H](C)[C@@H]1O (some centres not stated)
MIC [1]: 0.125 µg/mL (≈ 0.167 µM) | MIC [2]: 0.125 µg/mL (≈ 0.167 µM) | MIC [3]: 0.032 µg/mL (≈ 0.0427 µM) | ED50 [4]: 2.21 mg/kg | MIC [5]: 0.016 µg/mL (≈ 0.0213 µM) | MIC [6]: 0.032 µg/mL (≈ 0.0427 µM) | MIC [7]: 0.016 µg/mL (≈ 0.0213 µM) | MIC [8]: 0.032 µg/mL (≈ 0.0427 µM) | MIC [9]: 1 µg/mL (≈ 1.33 µM)

C=C[C@]1(C)C[C@@H](OC(=O)CSC2CCN(C(=O)CCn3cnc4c(N5CCC(CNC)C5)ncnc43)CC2)[C@]2(C)[C@H](C)CC[C@]3(CCC(=O)[C@@H]32)[C@@H](C)[C@@H]1O (some centres not stated)
MIC [1]: 0.25 µg/mL (≈ 0.327 µM) | MIC [2]: 0.5 µg/mL (≈ 0.654 µM) | MIC [3]: 0.125 µg/mL (≈ 0.164 µM) | ED50 [4]: 0.76 mg/kg | MIC [5]: 0.063 µg/mL (≈ 0.0825 µM) | MIC [6]: 0.063 µg/mL (≈ 0.0825 µM) | MIC [7]: 0.016 µg/mL (≈ 0.0209 µM) | MIC [8]: 0.125 µg/mL (≈ 0.164 µM) | MIC [9]: 2 µg/mL (≈ 2.62 µM)

C=C[C@]1(C)C[C@@H](OC(=O)CSC2CCN(C(=O)CCn3cnc4c(N5CC[C@H](N)C5)ncnc43)CC2)[C@]2(C)[C@H](C)CC[C@]3(CCC(=O)[C@@H]32)[C@@H](C)[C@@H]1O
MIC [1]: 0.125 µg/mL (≈ 0.17 µM) | MIC [2]: 0.5 µg/mL (≈ 0.679 µM) | MIC [3]: 0.125 µg/mL (≈ 0.17 µM) | ED50 [4]: 1.3 mg/kg | MIC [5]: 0.032 µg/mL (≈ 0.0435 µM) | MIC [6]: 0.032 µg/mL (≈ 0.0435 µM) | MIC [7]: 0.016 µg/mL (≈ 0.0217 µM) | MIC [8]: 0.125 µg/mL (≈ 0.17 µM) | MIC [9]: 2 µg/mL (≈ 2.72 µM)

C=C[C@]1(C)C[C@@H](OC(=O)CSC2CCN(C(=O)CCn3cnc4c(N5CCC(N(C)C)CC5)nc(N)nc43)CC2)[C@]2(C)[C@H](C)CC[C@]3(CCC(=O)[C@@H]32)[C@@H](C)[C@@H]1O
MIC [1]: 0.25 µg/mL (≈ 0.315 µM) | MIC [2]: 0.25 µg/mL (≈ 0.315 µM) | MIC [3]: 0.125 µg/mL (≈ 0.158 µM) | ED50 [4]: 1.72 mg/kg | MIC [5]: 0.063 µg/mL (≈ 0.0794 µM) | MIC [6]: 0.063 µg/mL (≈ 0.0794 µM) | MIC [7]: 0.032 µg/mL (≈ 0.0403 µM) | MIC [8]: 0.063 µg/mL (≈ 0.0794 µM) | MIC [9]: 2 µg/mL (≈ 2.52 µM)

C=C[C@]1(C)C[C@@H](OC(=O)CSC2CCN(C(=O)CCn3cnc4c(N5CCC(NC)C5)ncnc43)CC2)[C@]2(C)[C@H](C)CC[C@]3(CCC(=O)[C@@H]32)[C@@H](C)[C@@H]1O (some centres not stated)
MIC [1]: 0.063 µg/mL (≈ 0.084 µM) | MIC [2]: 0.25 µg/mL (≈ 0.333 µM) | MIC [3]: 0.032 µg/mL (≈ 0.0427 µM) | ED50 [4]: 1.61 mg/kg | MIC [5]: 0.016 µg/mL (≈ 0.0213 µM) | MIC [6]: 0.032 µg/mL (≈ 0.0427 µM) | MIC [7]: 0.016 µg/mL (≈ 0.0213 µM) | MIC [8]: 0.063 µg/mL (≈ 0.084 µM) | MIC [9]: 2 µg/mL (≈ 2.67 µM)

C=C[C@]1(C)C[C@@H](OC(=O)CSC2CCN(C(=O)CCn3cnc4c(N5CCCC(N)C5)nc(N)nc43)CC2)[C@]2(C)[C@H](C)CC[C@]3(CCC(=O)[C@@H]32)[C@@H](C)[C@@H]1O (some centres not stated)
MIC [1]: 0.25 µg/mL (≈ 0.327 µM) | MIC [2]: 1 µg/mL (≈ 1.31 µM) | MIC [3]: 0.25 µg/mL (≈ 0.327 µM) | ED50 [4]: 2.21 mg/kg | MIC [5]: 0.063 µg/mL (≈ 0.0823 µM) | MIC [6]: 0.063 µg/mL (≈ 0.0823 µM) | MIC [7]: 0.032 µg/mL (≈ 0.0418 µM) | MIC [8]: 0.125 µg/mL (≈ 0.163 µM) | MIC [9]: 2 µg/mL (≈ 2.61 µM)

C=C[C@]1(C)C[C@@H](OC(=O)CSC2CCN(C(=O)CCn3cnc4c(N5CCC(CN)C5)ncnc43)CC2)[C@]2(C)[C@H](C)CC[C@]3(CCC(=O)[C@@H]32)[C@@H](C)[C@@H]1O (some centres not stated)
MIC [1]: 0.125 µg/mL (≈ 0.167 µM) | MIC [2]: 0.5 µg/mL (≈ 0.667 µM) | MIC [3]: 0.125 µg/mL (≈ 0.167 µM) | ED50 [4]: 0.59 mg/kg | MIC [5]: 0.016 µg/mL (≈ 0.0213 µM) | MIC [6]: 0.032 µg/mL (≈ 0.0427 µM) | MIC [7]: 0.008 µg/mL (≈ 0.0107 µM) | MIC [8]: 0.063 µg/mL (≈ 0.084 µM) | MIC [9]: 1 µg/mL (≈ 1.33 µM)

C=C[C@]1(C)C[C@@H](OC(=O)CSC2CCN(C(=O)CCn3cnc4c(N5CCC(CN)C5)nc(N)nc43)CC2)[C@]2(C)[C@H](C)CC[C@]3(CCC(=O)[C@@H]32)[C@@H](C)[C@@H]1O (some centres not stated)
MIC [1]: 0.5 µg/mL (≈ 0.654 µM) | MIC [2]: 2 µg/mL (≈ 2.61 µM) | MIC [3]: 0.5 µg/mL (≈ 0.654 µM) | ED50 [4]: 2.84 mg/kg | MIC [5]: 0.063 µg/mL (≈ 0.0823 µM) | MIC [6]: 0.125 µg/mL (≈ 0.163 µM) | MIC [7]: 0.032 µg/mL (≈ 0.0418 µM) | MIC [8]: 0.125 µg/mL (≈ 0.163 µM) | MIC [9]: 4 µg/mL (≈ 5.23 µM)

C=C[C@]1(C)C[C@@H](OC(=O)CSC2CCN(C(=O)CCn3cnc4c(N5CCC(NC)CC5)ncnc43)CC2)[C@]2(C)[C@H](C)CC[C@]3(CCC(=O)[C@@H]32)[C@@H](C)[C@@H]1O
MIC [1]: 0.125 µg/mL (≈ 0.164 µM) | MIC [2]: 0.25 µg/mL (≈ 0.327 µM) | MIC [3]: 0.063 µg/mL (≈ 0.0825 µM) | ED50 [4]: 2.21 mg/kg | MIC [5]: 0.063 µg/mL (≈ 0.0825 µM) | MIC [6]: 0.063 µg/mL (≈ 0.0825 µM) | MIC [7]: 0.032 µg/mL (≈ 0.0419 µM) | MIC [8]: 0.125 µg/mL (≈ 0.164 µM) | MIC [9]: 2 µg/mL (≈ 2.62 µM)

C=C[C@]1(C)C[C@@H](OC(=O)CSC2CCN(C(=O)CCn3cnc4c(N5CCC(N)C5)ncnc43)CC2)[C@]2(C)[C@H](C)CC[C@]3(CCC(=O)[C@@H]32)[C@@H](C)[C@@H]1O (some centres not stated)
MIC [1]: 0.063 µg/mL (≈ 0.0856 µM) | MIC [2]: 0.125 µg/mL (≈ 0.17 µM) | MIC [3]: 0.032 µg/mL (≈ 0.0435 µM) | MIC [5]: 0.016 µg/mL (≈ 0.0217 µM) | MIC [6]: 0.032 µg/mL (≈ 0.0435 µM) | MIC [7]: 0.016 µg/mL (≈ 0.0217 µM) | MIC [8]: 0.032 µg/mL (≈ 0.0435 µM) | MIC [9]: 1 µg/mL (≈ 1.36 µM)

C=C[C@]1(C)C[C@@H](OC(=O)CSC2CCN(C(=O)CCn3cnc4c(N5CC(N)C5)nc(N)nc43)CC2)[C@]2(C)[C@H](C)CC[C@]3(CCC(=O)[C@@H]32)[C@@H](C)[C@@H]1O
MIC [1]: 0.5 µg/mL (≈ 0.678 µM) | MIC [2]: 1 µg/mL (≈ 1.36 µM) | MIC [3]: 0.25 µg/mL (≈ 0.339 µM) | ED50 [4]: 3.04 mg/kg | MIC [5]: 0.063 µg/mL (≈ 0.0855 µM) | MIC [6]: 0.125 µg/mL (≈ 0.17 µM) | MIC [7]: 0.063 µg/mL (≈ 0.0855 µM) | MIC [8]: 0.25 µg/mL (≈ 0.339 µM) | MIC [9]: 1 µg/mL (≈ 1.36 µM)
